Several values for one entry are separate records, joined by “and”; a condition that tells them apart may be missing. Equal entries are not always repeated. Toxic doses and inconclusive results are not listed. Rule for the calls: active = survival T/C of 150% or more; inactive = T/C below 125% in these data.
Test system: BDF1 mice, B16 melanoma ip, median survival T/C
Assay: NCI In Vivo Anticancer Drug Screen. Data for tumor model B16 Melanoma (intraperitoneal) in B6D2F1 (BDF1) mice
Settings: endpoint: median survival time, higher = longer survival
Summary of the method: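 Antitumor activity is assessed in mice bearing a transplanted tumor, with survival or tumor size compared against vehicle-dosed controls and expressed as T/C.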

[1] = dose: 6.25 mg/kg/injection, schedule: Q01DX009 (ip), vehicle: Klucel (hydroxypropylcellulose) (HPC)
[2] = dose: 12.5 mg/kg/injection, schedule: Q01DX009 (ip), vehicle: Klucel (hydroxypropylcellulose) (HPC)
[3] = dose: 25.0 mg/kg/injection, schedule: Q01DX009 (ip), vehicle: Klucel (hydroxypropylcellulose) (HPC)
[4] = dose: 50.0 mg/kg/injection, schedule: Q01DX009 (ip), vehicle: saline with Tween-80
[5] = dose: 100.0 mg/kg/injection, schedule: Q01DX009 (ip), vehicle: saline with Tween-80
[6] = dose: 200.0 mg/kg/injection, schedule: Q01DX009 (ip), vehicle: saline with Tween-80
[7] = dose: 1.0 mg/kg/injection, schedule: Q01DX009 (ip), vehicle: saline
[8] = dose: 2.0 mg/kg/injection, schedule: Q01DX009 (ip), vehicle: saline
[9] = dose: 4.0 mg/kg/injection, schedule: Q01DX009 (ip), vehicle: saline
[10] = dose: 16.0 mg/kg/injection, schedule: Q01DX009 (ip), vehicle: saline

Measured: T/C

CC1(C)N=C(N)N=C(N)N1c1cc(Cl)ccc1Cl
inactive: [1] 94 % of control | [2] 92 % of control | [3] 89 % of control and 94 % of control

O=S1(=O)N2CN3CN(C2)CN1C3
inactive: dose: 50.0 mg/kg/injection, schedule: Q01DX009 (ip), vehicle: Klucel (hydroxypropylcellulose) (HPC) 103 % of control | dose: 100.0 mg/kg/injection, schedule: Q01DX009 (ip), vehicle: Klucel (hydroxypropylcellulose) (HPC) 86 % of control

CN(C)CCN1c2ccccc2Sc2ccccc21
inactive: dose: 6.25 mg/kg/injection, schedule: Q01DX009 (ip), vehicle: saline 110 % of control | dose: 12.5 mg/kg/injection, schedule: Q01DX009 (ip), vehicle: saline 97 % of control | dose: 25.0 mg/kg/injection, schedule: Q01DX009 (ip), vehicle: saline 92 % of control | dose: 50.0 mg/kg/injection, schedule: Q01DX009 (ip), vehicle: saline 97 % of control | dose: 100.0 mg/kg/injection, schedule: Q01DX009 (ip), vehicle: saline 92 % of control

CSc1cc(=O)n2c3ccccc3c3ccnc1c32
inactive: dose: 0.63 mg/kg/injection, schedule: Q01DX009 (ip), vehicle: saline with Tween-80 104 % of control | dose: 1.25 mg/kg/injection, schedule: Q01DX009 (ip), vehicle: saline with Tween-80 110 % of control | dose: 2.5 mg/kg/injection, schedule: Q01DX009 (ip), vehicle: saline with Tween-80 101 % of control | dose: 5.0 mg/kg/injection, schedule: Q01DX009 (ip), vehicle: saline with Tween-80 108 % of control

OC1CC2CC1C1C=CCC21 (stereo unspecified)
inactive: [4] 95 % of control | [5] 95 % of control | [6] 90 % of control

Nc1nc([Se])c2ncn(C3OC(CO)C(O)C3O)c2n1 (stereo unspecified)
inactive: [7] 114 % of control | [8] 116 % of control and 117 % of control | [9] 114 % of control | dose: 8.0 mg/kg/injection, schedule: Q01DX009 (ip), vehicle: saline 116 % of control and 117 % of control | [10] 121 % of control

CCCCC(=O)N(c1ccc(Nc2c3ccccc3nc3cc([N+](=O)[O-])ccc23)cc1)S(C)(=O)=O
inactive: dose: 3.8 mg/kg/injection, schedule: Q01DX009 (ip), vehicle: saline with Tween-80 102 % of control | dose: 12.5 mg/kg/injection, schedule: Q01DX001 (ip), vehicle: saline with Tween-80 122 % of control | dose: 15.0 mg/kg/injection, schedule: Q01DX009 (ip), vehicle: saline with Tween-80 120 % of control

NC(Cc1cc(I)c(Oc2cc(I)c(O)c(I)c2)c(I)c1)C(=O)O (stereo unspecified)
inactive: [7] 93 % of control | [8] 101 % of control | [9] 92 % of control | [10] 101 % of control

Clc1ccc2nc(CBr)cnc2c1
inactive: dose: 0.75 mg/kg/injection, schedule: Q01DX009 (ip), vehicle: saline with Tween-80 97 % of control | dose: 1.5 mg/kg/injection, schedule: Q01DX009 (ip), vehicle: saline with Tween-80 86 % of control | dose: 3.0 mg/kg/injection, schedule: Q01DX009 (ip), vehicle: saline with Tween-80 97 % of control | dose: 6.0 mg/kg/injection, schedule: Q01DX009 (ip), vehicle: saline with Tween-80 88 % of control | dose: 6.25 mg/kg/injection, schedule: Q01DX009 (ip), vehicle: saline with Tween-80 87 % of control

CN(C1CCCCC1)C1CCCCC1
inactive: [1] 92 % of control | [2] 92 % of control | [3] 94 % of control

COC(=O)C1(C(=O)OC)CCCCC1=O
inactive: dose: 100.0 mg/kg/injection, schedule: Q04DX003 (ip), vehicle: Klucel (hydroxypropylcellulose) (HPC) 93 % of control | dose: 200.0 mg/kg/injection, schedule: Q04DX003 (ip), vehicle: Klucel (hydroxypropylcellulose) (HPC) 94 % of control

O=C(NC(Cc1ccccc1)C(=O)NC(Cc1c[nH]c2ccccc12)C(=O)O)OCc1ccccc1 (stereo unspecified)
inactive: [4] 98 % of control | [5] 100 % of control | [6] 94 % of control

NC(=O)CC(N)C(=O)O.[Cl-].[Cl-].[Cl-].[Cl-].[Pt+2] (stereo unspecified)
inactive: dose: 1.56 mg/kg/injection, schedule: Q01DX009 (ip), vehicle: saline 114 % of control | dose: 3.13 mg/kg/injection, schedule: Q01DX009 (ip), vehicle: saline 122 % of control

C=C(CCCCC)C(=O)/C=C/c1ccc(Cl)cc1
inactive: dose: 75.0 mg/kg/injection, schedule: Q04DX003 (ip), vehicle: Klucel (hydroxypropylcellulose) (HPC) 94 % of control | dose: 150.0 mg/kg/injection, schedule: Q04DX003 (ip), vehicle: Klucel (hydroxypropylcellulose) (HPC) 94 % of control

— PubChem BioAssay AID192 (DTP/NCI, 2004)
